Experiment [1] addresses Casein kinase I isoform alpha (Homo sapiens) (UniProt P48729). Nature of the experiment: Inhibition of CSNK1A1 (unknown origin) assessed as residual activity at 1000 nM by KINOMEscan analysis relative to control.
In experiment [2] the target is T1, Serine/threonine-protein kinase LATS1 (Homo sapiens) (UniProt O95835).
T1 sequence (whole entry): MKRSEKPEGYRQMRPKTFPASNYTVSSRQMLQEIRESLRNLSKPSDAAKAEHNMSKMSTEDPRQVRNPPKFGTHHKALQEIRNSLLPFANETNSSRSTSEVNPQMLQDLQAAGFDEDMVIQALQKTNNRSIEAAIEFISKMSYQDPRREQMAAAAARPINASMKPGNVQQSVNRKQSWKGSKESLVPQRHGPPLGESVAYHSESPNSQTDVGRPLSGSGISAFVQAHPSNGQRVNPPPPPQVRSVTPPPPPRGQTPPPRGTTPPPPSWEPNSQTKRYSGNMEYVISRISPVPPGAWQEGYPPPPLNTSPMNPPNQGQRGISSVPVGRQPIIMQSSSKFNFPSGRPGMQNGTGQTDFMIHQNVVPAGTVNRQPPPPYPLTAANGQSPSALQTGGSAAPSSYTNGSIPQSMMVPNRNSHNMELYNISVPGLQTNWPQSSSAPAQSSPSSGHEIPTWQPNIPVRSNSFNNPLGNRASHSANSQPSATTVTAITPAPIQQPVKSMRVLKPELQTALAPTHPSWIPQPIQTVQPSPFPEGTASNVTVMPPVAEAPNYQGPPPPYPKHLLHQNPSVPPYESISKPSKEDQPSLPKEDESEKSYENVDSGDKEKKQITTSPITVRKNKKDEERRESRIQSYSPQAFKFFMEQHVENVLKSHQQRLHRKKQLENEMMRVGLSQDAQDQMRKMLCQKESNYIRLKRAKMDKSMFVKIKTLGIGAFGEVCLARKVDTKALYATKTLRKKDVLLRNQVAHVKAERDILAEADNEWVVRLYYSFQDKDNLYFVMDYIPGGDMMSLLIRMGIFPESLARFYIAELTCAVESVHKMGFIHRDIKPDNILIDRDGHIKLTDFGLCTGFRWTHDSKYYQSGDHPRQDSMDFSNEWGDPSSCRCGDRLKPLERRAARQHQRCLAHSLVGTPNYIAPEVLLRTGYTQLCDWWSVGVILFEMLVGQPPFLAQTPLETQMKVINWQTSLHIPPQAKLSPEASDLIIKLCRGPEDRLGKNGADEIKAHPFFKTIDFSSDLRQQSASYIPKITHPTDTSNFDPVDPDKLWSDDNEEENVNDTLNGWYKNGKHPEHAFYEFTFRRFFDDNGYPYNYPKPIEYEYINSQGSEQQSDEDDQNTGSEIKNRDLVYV
As to the kind of experiment: Inhibition of LATS1 (unknown origin) assessed as residual activity at 1000 nM by KINOMEscan analysis relative to control.

Experiment [3] addresses Maternal embryonic leucine zipper kinase (Homo sapiens) (UniProt Q14680). As to the kind of experiment: Inhibition of MELK (unknown origin) assessed as residual activity at 1000 nM by KINOMEscan analysis relative to control.
The target in experiment [4] is T2, Myosin-IIIb (Homo sapiens) (UniProt Q8WXR4).
T2 sequence (whole entry): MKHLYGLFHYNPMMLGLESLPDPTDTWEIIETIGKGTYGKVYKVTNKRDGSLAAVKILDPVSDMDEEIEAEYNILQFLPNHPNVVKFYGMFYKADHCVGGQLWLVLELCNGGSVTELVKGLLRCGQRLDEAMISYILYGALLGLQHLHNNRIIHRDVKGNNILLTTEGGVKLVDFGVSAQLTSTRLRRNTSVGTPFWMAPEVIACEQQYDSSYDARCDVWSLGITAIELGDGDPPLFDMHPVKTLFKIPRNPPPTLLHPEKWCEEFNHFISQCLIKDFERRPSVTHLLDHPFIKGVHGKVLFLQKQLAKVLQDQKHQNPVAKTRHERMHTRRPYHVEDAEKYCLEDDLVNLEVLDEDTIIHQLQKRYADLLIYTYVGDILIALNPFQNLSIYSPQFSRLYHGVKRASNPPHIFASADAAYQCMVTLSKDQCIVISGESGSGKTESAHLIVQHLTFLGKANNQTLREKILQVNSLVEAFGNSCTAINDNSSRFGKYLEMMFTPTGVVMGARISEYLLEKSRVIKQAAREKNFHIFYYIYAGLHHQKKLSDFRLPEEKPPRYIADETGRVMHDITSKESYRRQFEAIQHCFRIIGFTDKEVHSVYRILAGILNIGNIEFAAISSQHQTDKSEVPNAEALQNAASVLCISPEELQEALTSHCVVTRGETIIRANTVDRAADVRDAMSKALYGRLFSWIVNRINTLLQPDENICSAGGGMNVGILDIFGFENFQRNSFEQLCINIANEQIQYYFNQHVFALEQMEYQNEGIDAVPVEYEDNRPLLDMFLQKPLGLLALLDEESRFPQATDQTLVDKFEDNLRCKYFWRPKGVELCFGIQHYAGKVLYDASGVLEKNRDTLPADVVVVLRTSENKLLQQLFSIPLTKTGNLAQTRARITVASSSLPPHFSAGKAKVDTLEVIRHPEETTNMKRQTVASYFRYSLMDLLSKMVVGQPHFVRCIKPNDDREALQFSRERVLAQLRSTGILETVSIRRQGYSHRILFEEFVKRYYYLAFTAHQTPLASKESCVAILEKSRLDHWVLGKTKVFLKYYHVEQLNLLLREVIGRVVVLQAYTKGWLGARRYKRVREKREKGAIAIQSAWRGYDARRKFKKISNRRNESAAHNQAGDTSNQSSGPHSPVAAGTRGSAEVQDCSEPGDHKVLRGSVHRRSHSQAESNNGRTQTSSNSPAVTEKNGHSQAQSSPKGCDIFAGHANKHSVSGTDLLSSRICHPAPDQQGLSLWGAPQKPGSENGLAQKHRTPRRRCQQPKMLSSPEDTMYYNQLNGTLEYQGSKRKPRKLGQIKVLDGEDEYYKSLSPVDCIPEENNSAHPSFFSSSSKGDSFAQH
Nature of the experiment: Inhibition of MYO3B (unknown origin) assessed as residual activity at 1000 nM by KINOMEscan analysis relative to control.

In experiment [5] the target is Proto-oncogene tyrosine-protein kinase ROS (Homo sapiens) (UniProt P08922). Nature of the experiment: Inhibition of ROS1 (unknown origin) assessed as residual activity at 1000 nM by KINOMEscan analysis relative to control.
Chain of Proto-oncogene tyrosine-protein kinase ROS (Homo sapiens) (P08922 whole entry): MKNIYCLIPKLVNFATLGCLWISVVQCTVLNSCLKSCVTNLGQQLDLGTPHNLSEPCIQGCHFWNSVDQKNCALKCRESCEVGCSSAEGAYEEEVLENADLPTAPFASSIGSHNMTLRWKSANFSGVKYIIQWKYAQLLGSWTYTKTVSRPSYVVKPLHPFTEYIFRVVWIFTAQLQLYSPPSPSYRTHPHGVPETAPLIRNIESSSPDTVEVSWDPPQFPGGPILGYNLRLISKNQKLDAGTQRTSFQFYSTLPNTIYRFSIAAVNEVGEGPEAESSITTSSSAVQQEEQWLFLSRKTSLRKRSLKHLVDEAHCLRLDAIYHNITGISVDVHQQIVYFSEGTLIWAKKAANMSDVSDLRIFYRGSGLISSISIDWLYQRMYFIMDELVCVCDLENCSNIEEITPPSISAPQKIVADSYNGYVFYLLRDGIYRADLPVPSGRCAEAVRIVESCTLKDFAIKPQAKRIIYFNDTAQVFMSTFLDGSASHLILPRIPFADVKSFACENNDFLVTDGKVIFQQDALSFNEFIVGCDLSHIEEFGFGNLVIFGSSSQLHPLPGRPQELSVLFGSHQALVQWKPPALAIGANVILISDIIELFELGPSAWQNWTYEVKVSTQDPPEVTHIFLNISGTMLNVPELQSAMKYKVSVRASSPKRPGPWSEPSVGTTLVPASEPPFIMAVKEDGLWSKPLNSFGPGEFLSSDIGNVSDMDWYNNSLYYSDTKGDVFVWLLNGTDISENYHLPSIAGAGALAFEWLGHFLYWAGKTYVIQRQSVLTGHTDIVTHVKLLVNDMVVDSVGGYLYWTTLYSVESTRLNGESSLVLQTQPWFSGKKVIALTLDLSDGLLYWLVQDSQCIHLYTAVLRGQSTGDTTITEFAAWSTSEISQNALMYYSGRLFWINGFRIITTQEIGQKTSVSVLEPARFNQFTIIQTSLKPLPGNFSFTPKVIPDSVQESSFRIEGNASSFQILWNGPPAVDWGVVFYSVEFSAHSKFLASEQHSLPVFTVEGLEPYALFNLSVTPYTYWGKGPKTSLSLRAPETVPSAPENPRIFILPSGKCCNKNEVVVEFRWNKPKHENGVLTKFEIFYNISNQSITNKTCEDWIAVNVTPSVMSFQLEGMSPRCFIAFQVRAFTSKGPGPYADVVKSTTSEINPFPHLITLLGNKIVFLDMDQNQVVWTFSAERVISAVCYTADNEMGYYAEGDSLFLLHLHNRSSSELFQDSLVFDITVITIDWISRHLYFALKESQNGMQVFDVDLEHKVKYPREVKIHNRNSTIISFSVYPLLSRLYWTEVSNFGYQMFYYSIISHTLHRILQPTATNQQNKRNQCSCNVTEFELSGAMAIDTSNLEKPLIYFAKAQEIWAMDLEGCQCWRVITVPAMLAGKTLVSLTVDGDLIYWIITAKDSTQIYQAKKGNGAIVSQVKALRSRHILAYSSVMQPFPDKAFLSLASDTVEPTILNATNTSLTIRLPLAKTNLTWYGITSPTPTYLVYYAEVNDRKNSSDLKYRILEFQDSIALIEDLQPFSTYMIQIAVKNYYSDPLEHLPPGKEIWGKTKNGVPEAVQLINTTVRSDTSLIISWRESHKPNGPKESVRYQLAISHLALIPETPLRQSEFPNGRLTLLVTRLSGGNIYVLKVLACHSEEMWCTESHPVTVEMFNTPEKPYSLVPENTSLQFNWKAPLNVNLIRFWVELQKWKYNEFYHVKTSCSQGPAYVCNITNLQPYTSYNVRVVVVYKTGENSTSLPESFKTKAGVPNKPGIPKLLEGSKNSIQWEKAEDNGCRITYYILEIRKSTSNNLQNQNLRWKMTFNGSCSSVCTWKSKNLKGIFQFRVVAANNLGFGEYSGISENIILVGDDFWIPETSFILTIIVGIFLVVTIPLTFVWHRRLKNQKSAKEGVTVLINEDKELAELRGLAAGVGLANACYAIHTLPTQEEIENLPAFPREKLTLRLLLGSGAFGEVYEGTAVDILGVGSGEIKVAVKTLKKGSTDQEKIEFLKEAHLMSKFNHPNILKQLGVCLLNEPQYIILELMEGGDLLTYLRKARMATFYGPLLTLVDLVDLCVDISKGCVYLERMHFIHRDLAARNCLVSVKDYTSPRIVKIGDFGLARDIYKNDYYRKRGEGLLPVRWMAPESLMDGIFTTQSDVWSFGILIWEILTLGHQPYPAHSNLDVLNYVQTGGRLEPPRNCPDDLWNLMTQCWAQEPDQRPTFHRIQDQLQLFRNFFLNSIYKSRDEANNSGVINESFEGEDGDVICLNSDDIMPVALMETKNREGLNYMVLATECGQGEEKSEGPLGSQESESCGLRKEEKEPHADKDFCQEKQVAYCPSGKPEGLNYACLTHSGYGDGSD

Chain of Casein kinase I isoform alpha (Homo sapiens) (P48729 2-337 limits assumed): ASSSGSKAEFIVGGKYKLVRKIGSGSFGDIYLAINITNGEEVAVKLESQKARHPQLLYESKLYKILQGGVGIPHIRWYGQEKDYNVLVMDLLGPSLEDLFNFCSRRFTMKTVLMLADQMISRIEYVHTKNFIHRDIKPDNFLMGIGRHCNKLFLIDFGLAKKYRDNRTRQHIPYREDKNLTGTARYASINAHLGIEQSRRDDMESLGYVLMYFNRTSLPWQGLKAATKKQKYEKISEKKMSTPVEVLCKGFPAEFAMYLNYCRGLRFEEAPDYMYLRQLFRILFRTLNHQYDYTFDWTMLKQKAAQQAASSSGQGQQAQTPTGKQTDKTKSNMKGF
Chain of Maternal embryonic leucine zipper kinase (Homo sapiens) (Q14680 whole entry, looked up): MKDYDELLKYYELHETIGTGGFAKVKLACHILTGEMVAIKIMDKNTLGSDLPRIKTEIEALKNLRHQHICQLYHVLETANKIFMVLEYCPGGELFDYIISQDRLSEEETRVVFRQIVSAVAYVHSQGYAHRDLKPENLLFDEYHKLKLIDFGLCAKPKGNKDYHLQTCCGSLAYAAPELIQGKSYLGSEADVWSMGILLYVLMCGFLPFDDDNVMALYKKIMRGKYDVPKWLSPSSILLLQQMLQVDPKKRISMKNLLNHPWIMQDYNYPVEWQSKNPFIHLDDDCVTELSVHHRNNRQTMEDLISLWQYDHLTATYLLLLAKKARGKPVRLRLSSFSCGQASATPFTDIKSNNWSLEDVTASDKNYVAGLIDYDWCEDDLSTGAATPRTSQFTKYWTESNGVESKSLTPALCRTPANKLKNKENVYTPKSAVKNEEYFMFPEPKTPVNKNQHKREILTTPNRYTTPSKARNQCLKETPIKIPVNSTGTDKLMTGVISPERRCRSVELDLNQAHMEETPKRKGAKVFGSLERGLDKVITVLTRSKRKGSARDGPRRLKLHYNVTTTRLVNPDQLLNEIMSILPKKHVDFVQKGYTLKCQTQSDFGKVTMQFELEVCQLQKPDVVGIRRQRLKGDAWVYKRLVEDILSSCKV

Consider `COc1cc2nc(C)nc(N[C@H](C)c3cccc(-c4cn[nH]c4)c3)c2cc1OC`, for which the Activity in experiment [1] was 76%; in experiment [2], 98%; in experiment [3], 91%; in experiment [4], 89%; in experiment [5], 100%.

For `COc1cc2ncnc(N[C@H](C)c3cccc4ccccc34)c2cc1OC`, the Activity is 96% in experiment [1]; 100% in experiment [2]; 71% in experiment [3]; 88% in experiment [4]; 90% in experiment [5].

Source of the values: ChEMBL document CHEMBL5678818, “Discovery of potent SOS1 inhibitors that block RAS activation via disruption of the RAS-SOS1 interaction” (Proc Natl Acad Sci U S A, 2019).
